For data set [1] the following is noted: cited from earlier work.
Data set [2] in a line: Lab soil pesticide release testing. Format: physicochemical. As to conditions: for Pesticide content of fumigant-free soil disinfestation materials after set time on Soil: HPLC, LoQ 0.25 g/ha. On the procedure:
200 g of dry soil is placed in rectangular thin layer chromatography chamber of 27×7×26 cm with lid and 20 g water is added to the soil. A 58 cm^2 of a polymer composite material sample is placed on the humid soil and weight down by a glass plate with a contact pressure of […] to simulate similar contact conditions with the soil as in the field after application of the polymer composite material like a plastic mulch film. […]
After the set contact time with the soil the film sample is removed, moisture is dabbed off, loose dirt is brushed off and then the sample is dried at 60 C in an oven for 10 min. After drying the sample is cut into 100 small squares (each about 7.5 by 7.5 mm), placed in a small glass flask with 5 gram of Methanol and a magnetic stir bar. The flask is capped, stirred for 4 hours and the methanolic solution is then analyzed by HPLC. The difference between the initial and remaining amount of pesticide is released to the soil during the set time. The lowest concentration of analyte that can be determined with an acceptable repeatability and trueness by the method is 0.025 mg/m^2=0.25 g/ha Limit of quantitation (LoQ).

As to `N#Cc1c[nH]cc1-c1cccc2c1OC(F)(F)O2` [Fludioxonil], the Water solubility entry in data set [1] was “hardly water soluble”. Further, the “Pesticide content of fumigant-free soil disinfestation materials after set time on Soil” value in data set [2] (Example 1 material, 0 days (initial content)) amounted to 244 g/ha; in data set [2] (Example 1 material, 7 days on humid soil), 57 g/ha; in data set [2] (Example 1 material, 14 days on humid soil) it was 23 g/ha; in data set [2] (Example 1 material, 21 days on humid soil), 0 g/ha; in data set [2] (Example 2 material, 0 days (initial content)), 244 g/ha; in data set [2] (Example 2 material, 7 days on humid soil), 53 g/ha. In addition, the “Pesticide content of fumigant-free soil disinfestation materials after set time on Soil” value in data set [2] (Example 2 material, 14 days on humid soil) was found to be 17 g/ha; in data set [2] (Example 2 material, 21 days on humid soil), 0 g/ha. For the same molecule, the “Release from coated film in lab release test (FIG. 3)” value in data set [2] (at 7, 14 and 21 days, before planting) is given as “complete release”.

The record behind these values is patent US11992009B2, “Pesticide-containing soil disinfestation material without use of fumigant” (priority 2020, dated 2024).
